In patent publication US10265286B2, “Sequelae of cardiopulmonary bypass-induced pulmonary injury” (Vanderbilt University, priority 2016, dated 2019):

What was measured:
[1] = Phase IB study: postoperative invasive mechanical ventilation; assay type: in vivo, human; settings: for patients extubated in the operating room: Site 02
Procedure: The duration of postoperative invasive mechanical ventilation was derived as the time in hours from separation from cardiopulmonary bypass until endotracheal extubation. If a patient required reintubation within 24 hours after extubation, the reintubation time was added in the main analysis. In a second analysis, the reintubation time was not included.

[2] = Phase IB study: total respiratory support; assay type: in vivo, human; settings: invasive and non-invasive
Description: The analysis of total respiratory support includes any invasive and non-invasive respiratory support required during the study period. The mean total duration of respiratory support in the citrulline treatment group was less than half the duration in the placebo treatment group; the difference was statistically significant (Table 11).

## NC(=O)NCCCC(N)C(=O)O (stereo not drawn) [Citrulline, 2-amino-5-(carbamoylamino)pentanoic acid]
[1]; Re-intubation time excluded
  Duration of invasive mechanical ventilation, Diff (CI) placebo vs citrulline: 19.5 (1.9, 37.2) hours
  Duration of invasive mechanical ventilation, Mean ± SD: 5.1 ± 8.15 h
  Duration of invasive mechanical ventilation, Median: 0.0 h
  Duration of invasive mechanical ventilation, Range: 0.0 to 22.5 h
[1]; Re-intubation time included
  Duration of invasive mechanical ventilation, Diff (CI) placebo vs citrulline: 32.0 (−9.5, 73.4) hours
  Duration of invasive mechanical ventilation, Median: 0.0 h
  Duration of invasive mechanical ventilation, Range: 0.0 to 22.5 h
[1]; Re-intubation time included, N = 11
  Duration of invasive mechanical ventilation, Mean ± SD: 5.1 ± 8.15 h
[1]; Re-intubation time included, N = 11, listed as citrulline
  Duration of invasive mechanical ventilation, Mean ± SD: 5 h
[1]; placebo 2
  patients extubated in the operating room: 6 patients
[1]; placebo 33%
  patients extubated in the operating room: 100%
[2]
  Total duration of respiratory support, Diff (CI) placebo vs citrulline: 50.7 (5.4, 96.0) hours
  Total duration of respiratory support, Median: 23.6 h
  Total duration of respiratory support, Range: 0.0 to 100.1 h
[2]; N = 11
  Total duration of respiratory support, Mean ± SD: 31.2 ± 28.27 h
